Laboratory results as given in patent publication US11591323B2, “Muscarinic agonists as non-steroidal and non-opioid analgesics and methods of use thereof” (Barry University, priority 2019, dated 2023).

What was measured:
[1] = target: T1, M2 muscarinic receptor (Homo sapiens, UniProt P08172); assay: accumulation of IPX, M2 CHO cells (M2Gq); format: cell-based; parameters: host or cells: CHO cells, stably transfected; conditions: for E′MAX / τ / Δlog(τ/KA) / RAi: M2Gq (↑IPX); for E′MAX / τ: Table 8; for Δlog(τ/KA): Table 8, to carbachol; for RAi: Table 8, relative to carbachol
T1 sequence (P08172 1-466): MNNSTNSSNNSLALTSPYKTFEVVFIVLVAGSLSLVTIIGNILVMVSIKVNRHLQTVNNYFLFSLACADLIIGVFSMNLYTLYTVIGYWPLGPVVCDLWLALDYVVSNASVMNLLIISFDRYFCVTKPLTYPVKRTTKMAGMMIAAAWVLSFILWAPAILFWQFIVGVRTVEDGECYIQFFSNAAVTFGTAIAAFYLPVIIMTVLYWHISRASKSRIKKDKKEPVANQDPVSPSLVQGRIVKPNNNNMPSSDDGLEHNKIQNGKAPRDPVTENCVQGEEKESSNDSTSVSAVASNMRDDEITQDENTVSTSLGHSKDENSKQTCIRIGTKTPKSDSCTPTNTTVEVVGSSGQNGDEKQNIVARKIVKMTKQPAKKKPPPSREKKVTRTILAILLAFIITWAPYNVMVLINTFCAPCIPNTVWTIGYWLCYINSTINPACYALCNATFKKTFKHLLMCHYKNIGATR
Protocol: (§1) To determine level of cAMP, cells in suspension were pre-incubated for 1 h with 0.4 μM [^3H]adenine, washed, and incubated for 10 min in the presence of isobutylmethylxanthine and 10 μM forskolin. […] Incubation was ended by addition of 0.2 ml of 2.5 M HCl to the samples. Samples were applied to alumina columns (1.5 g of alumina per column), washed with 2 ml ammonium acetate (pH=7.0) and eluted from columns with 4 ml ammonium acetate and measured by liquid scintillation spectrometry. […] The incubation was stopped by addition of 0.5 ml of chloroform methanol HCl mixture (2:1:0.1). After separation of water and organic phases, 0.6 ml of water phase was applied to Dowex columns (1.5 g of Dowex per column), washed by 20 ml of 60 mM ammonium formate/5 mM sodium borate buffer and eluted from columns with 4 ml of 1M ammonium formate/0.1 formic acid buffer and measured by liquid scintillation spectrometry.
(§2) Measurements of the production of cAMP and inositol phosphates: Levels of second messengers cAMP and inositol phosphates were determined in radiochemical chromatography assays as described previously. To determine level of cAMP, cells in suspension were pre-incubated for 1 h with 0.4 μM [^3H]adenine, washed, and incubated for 10 min in the presence of isobutylmethylxanthine and 10 μM forskolin. […] Incubation was ended by addition of 0.2 ml of 2.5 M HCl to the samples. Samples were applied to alumina columns (1.5 g of alumina per column), washed with 2 ml ammonium acetate (pH=7.0) and eluted from columns with 4 ml ammonium acetate and measured by liquid scintillation spectrometry. […] For this purpose, new CHO cell lines stably expressing promiscuous G15 G-protein and M2 or M4 receptor were generated by transfection with pCMV/hygro vector and hygromycin selection. To determine the rate of formation of inositol phosphates IPX, suspended cells were pre-incubated with 0.1 μM [^3H]myo-inositol for 60 min, washed, and incubated with 10 mM LiCl for 15 min. […] The incubation was stopped by addition of 0.5 ml of chloroform methanol HCl mixture (2:1:0.1). After separation of water and organic phases, 0.6 ml of water phase was applied to Dowex columns (1.5 g of Dowex per column), washed by 20 ml of 60 mM ammonium formate/5 mM sodium borate buffer and eluted from columns with 4 ml of 1M ammonium formate/0.1 formic acid buffer and measured by liquid scintillation spectrometry.
(§3) For bi-phasic response, curves were inhibitory and stimulatory phase were fitted separately. Operational Model of Functional Agonism
(§4) [formula] where y is functional response at concentration of tested compound x, EMAX is maximal response of the system, KA is equilibrium dissociation constant and nH is slope factor. Eq. 5 was fitted to data from functional experiments. Eq. 5 was fitted to data by the two-step procedure described earlier. […] In the second step, Eq. 5 with EMAX fixed to the value determined in the first step was fitted to individual experimental data sets. Relative Intrinsic Activity

[2] = target: T2, M4 muscarinic receptor (Homo sapiens, UniProt P08173); assay: accumulation of IPX, M4 CHO cells (M4Gq); format: cell-based; parameters: host or cells: CHO cells, stably transfected; conditions: for E′MAX / τ / Δlog(τ/KA) / RAi: M4Gq (↑IPX); for E′MAX / τ: Table 8; for Δlog(τ/KA): Table 8, to carbachol; for RAi: Table 8, relative to carbachol
T2 sequence (P08173 1-479): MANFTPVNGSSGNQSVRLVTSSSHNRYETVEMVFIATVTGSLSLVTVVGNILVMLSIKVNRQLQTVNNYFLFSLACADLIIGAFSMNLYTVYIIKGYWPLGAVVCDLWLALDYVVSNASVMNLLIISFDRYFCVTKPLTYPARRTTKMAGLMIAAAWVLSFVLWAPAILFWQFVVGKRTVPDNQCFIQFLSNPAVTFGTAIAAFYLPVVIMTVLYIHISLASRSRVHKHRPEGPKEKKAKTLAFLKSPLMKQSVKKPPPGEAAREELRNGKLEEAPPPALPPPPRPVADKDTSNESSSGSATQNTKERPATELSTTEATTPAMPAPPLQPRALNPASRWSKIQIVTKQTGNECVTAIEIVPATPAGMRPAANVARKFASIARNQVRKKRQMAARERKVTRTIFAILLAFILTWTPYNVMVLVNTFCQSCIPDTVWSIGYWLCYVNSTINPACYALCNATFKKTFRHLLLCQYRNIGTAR
Protocol: as §1, §2, §3, §4

Compound	E′MAX [1] [fold over basal]	τ [1]	Δlog(τ/KA) [1]	E′MAX [2] [fold over basal]	τ [2]	Δlog(τ/KA) [2]	RAi [1]	RAi [2]	EC50 [1] [nM]	Kd [1] [nM]	EC50 [2] [nM]	Kd [2] [nM]
C[N+](C)(C)CCOC(N)=O [carbachol, reference compound]	1.91 ± 0.07	0.2 ± 0.1	0	1.78 ± 0.05	0.24 ± 0.03	0						
C[N+]1(Cc2cccs2)CC=CCC1.[I-] (stereo not shown) [Compound 7A, 1-methyl-1-[(thiophen-2-yl)methyl]-1,2,3,6-tetrahydropyridin-1-ium iodide]							0	0				
C1=CCN(Cc2cccs2)CC1.Cl [Compound 6A, 1-[(thiophen-2-yl)methyl]-1,2,3,6-tetrahydropyridin-1-ium chloride]							0	0				
O=C1CCCN1CC#CCN1CCCC1 [oxotremorine, reference compound]	1.60 ± 0.05	0.2 ± 0.1	−0.49 ± 0.05	1.58 ± 0.04	0.17 ± 0.02	−0.67 ± 0.06	3.08 ± 0.28	4.69 ± 0.17	209	251	162	200
